Reference: US11878973B2, “Bicyclic compounds and their uses” (NOVARTIS AG, priority 2021, dated 2024)
Read-outs that look alike come from different tables or passages of the source.

Key:
SW48 cells = assay: Proliferation assay SW48 (CellTiterGlo, 96 hours)
Experimental: The WRN-knockdown insensitive colon carcinoma cell line DLD-1 (RRID: CVCL_0248) was obtained from the Korean Cell Line Bank (KCLB), and used to generate a derivative in which the endogenous WRN gene copies were knocked out by CRISPR-mediated editing using standard CRISPR methods. The resulting cell line, DLD1-WRN—KO, was used to assess potential off-target compound effects.
All cells were maintained at 37° C. in a humidified 5% CO2 incubator.
For data analysis, the assay background signal that was determined in wells containing medium, but no cells, was subtracted from all other data points prior to further calculations. The extent of growth inhibition and potential cell kill was assessed by comparing the ATP levels (measured using CellTiterGlo, Promega) in compound-treated cells with those present at the time of compound addition. […] 100%, 0% and −100% signify absence of growth inhibition, growth stasis, and complete cell kill, respectively. Compound concentrations leading to half-maximal growth inhibition (G150) and residual cell viability at the highest tested compound concentration (Data (cmax), expressed in percent) were routinely calculated. Data analysis can also be carried out using commercially available software designed to derive IC50 values using 4-parameter fits (e.g. GraphPad Prism, XL fit). The reported GI50 values are the geometrical means of at least 2 independent replicates.

WRN helicase = WRN helicase (Homo sapiens (Human), UniProt Q14191); assay: In vitro enzymatic activity assay on WRN helicase (DNA dependent ATPase assay, ADP-Glo); assay type: biochemical; conditions: geometric means of at least 2 determinations; read-out: WRN ATPase Activity (IC50)
In short: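 The WRN helicase core (aa N517-P1238), 10 nM, hydrolysed 300 µM ATP in the presence of 0.2 nM FLAP26 DNA (Tris pH 7.5, 2 mM MgCl2, 50 mM NaCl) for 30 min at room temperature. ADP formed was quantified by ADP-Glo luminescence.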

DLD1-WRN-KO cells = assay: Proliferation assay DLD1-WRN-KO (CellTiterGlo, 96 hours; off-target effects); conditions: read-out: Proliferation Assay DLD1-WRN-KO (GI50)
[1] = Homo sapiens, SW48, read-out: Proliferation Assay SW48 (GI50)

WRN helicase, sequence (Q14191 517-1238): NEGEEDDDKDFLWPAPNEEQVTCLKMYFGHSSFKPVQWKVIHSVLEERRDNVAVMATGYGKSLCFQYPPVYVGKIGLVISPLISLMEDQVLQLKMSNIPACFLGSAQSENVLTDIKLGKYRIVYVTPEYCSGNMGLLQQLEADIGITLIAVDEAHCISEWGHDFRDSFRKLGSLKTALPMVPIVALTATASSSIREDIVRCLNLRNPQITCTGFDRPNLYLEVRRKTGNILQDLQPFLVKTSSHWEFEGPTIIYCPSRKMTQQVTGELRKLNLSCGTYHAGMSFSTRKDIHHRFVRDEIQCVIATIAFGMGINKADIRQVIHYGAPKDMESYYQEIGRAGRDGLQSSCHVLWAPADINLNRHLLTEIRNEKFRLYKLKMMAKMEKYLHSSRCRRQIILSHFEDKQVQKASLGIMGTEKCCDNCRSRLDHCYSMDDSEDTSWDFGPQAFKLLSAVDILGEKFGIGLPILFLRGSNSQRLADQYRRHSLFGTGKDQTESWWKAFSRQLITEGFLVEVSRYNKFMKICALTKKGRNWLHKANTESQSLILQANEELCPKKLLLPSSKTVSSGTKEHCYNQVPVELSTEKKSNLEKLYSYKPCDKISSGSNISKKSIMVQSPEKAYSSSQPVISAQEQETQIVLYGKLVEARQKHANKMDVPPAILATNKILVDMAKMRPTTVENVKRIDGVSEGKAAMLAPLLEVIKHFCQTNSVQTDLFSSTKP

## O=C(Cn1c(C2CC2)c(N2CCN(C(=O)c3ncccc3O)CC2)c(=O)n2nc(C3=CCOCC3)nc12)Nc1ccc(C(F)(F)F)cc1 [Example 134, 2-(5-cyclopropyl-2-(3,6-dihydro-2H-pyran-4-yl)-6-(4-(3-hydroxypicolinoyl)piperazin-1-yl)-7-oxo-[1,2,4]triazolo[1,5-a]pyrimidin-4(7H)-yl)-N-(4-(trifluoromethyl)phenyl)acetamide]
SW48 cells; [1]
  GI50: 0.21 µM
WRN helicase
  IC50: 0.06 µM
DLD1-WRN-KO cells; Homo sapiens
  GI50: > 10 µM

## CCc1c(N2CCN(C(=O)c3ncccc3O)CC2)c(=O)n2nc(C3=CCC(OC)CC3)nc2n1CC(=O)Nc1ccc(C(F)(F)F)cc1C (racemic) [Example 80, rac-2-(5-ethyl-6-(4-(3-hydroxypicolinoyl)piperazin-1-yl)-2-(4-methoxycyclohex-1-en-1-yl)-7-oxo-[1,2,4]triazolo[1,5-a]pyrimidin-4(7H)-yl)-N-(2-methyl-4-(trifluoromethyl)phenyl)acetamide]
SW48 cells; [1]
  GI50: 0.07 µM
WRN helicase
  IC50: 0.06 µM
DLD1-WRN-KO cells; Homo sapiens
  GI50: > 10 µM

## CCc1c(N2CCN(C(=O)c3ncncc3O)CC2)c(=O)n2nc(C3=CCOCC3)nc2n1CC(=O)Nc1ccc(C(F)(F)F)cc1Cl [Example 44, N-(2-chloro-4-(trifluoromethyl)phenyl)-2-(2-(3,6-dihydro-2H-pyran-4-yl)-5-ethyl-6-(4-(5-hydroxypyrimidine-4-carbonyl)piperazin-1-yl)-7-oxo-[1,2,4]triazolo[1,5-a]pyrimidin-4(7H)-yl)acetamide]
SW48 cells; [1]
  GI50: 0.08 µM
WRN helicase
  IC50: 0.11 µM
DLD1-WRN-KO cells; Homo sapiens
  GI50: > 10 µM

## Cc1c(C2CCN(C(=O)c3ncccc3O)CC2)c(=O)n2nc(C3=CCOCC3)nc2n1CC(=O)Nc1ccc(C(F)(F)F)cc1 [Example 136, 2-(2-(3,6-dihydro-2H-pyran-4-yl)-6-(1-(3-hydroxypicolinoyl)piperidin-4-yl)-5-methyl-7-oxo-[1,2,4]triazolo[1,5-a]pyrimidin-4(7H)-yl)-N-(4-(trifluoromethyl)phenyl)acetamide]
SW48 cells; [1]
  GI50: 0.65 µM
WRN helicase
  IC50: 0.08 µM
DLD1-WRN-KO cells; Homo sapiens
  GI50: > 10 µM

## CCc1c(N2CCN(C(=O)c3ncnc(C)c3O)[C@@H]3CC[C@H]32)c(=O)n2nc(C3=CCOCC3)nc2n1CC(=O)Nc1ccc(C(F)(F)F)cc1Cl [Example 124, N-(2-chloro-4-(trifluoromethyl)phenyl)-2-(2-(3,6-dihydro-2H-pyran-4-yl)-5-ethyl-6-((1R,6R)-5-(5-hydroxy-6-methylpyrimidine-4-carbonyl)-2,5-diazabicyclo[4.2.0]octan-2-yl)-7-oxo-[1,2,4]triazolo[1,5-a]pyrimidin-4(7H)-yl)acetamide]
SW48 cells; [1]
  GI50: 0.39 µM
WRN helicase
  IC50: 0.36 µM
DLD1-WRN-KO cells; Homo sapiens
  GI50: > 10 µM

## CCc1c(N2CCN(C(=O)c3ncccc3O)CC2)c(=O)n2nc(C3=CCOCC3)nc2n1CC(=O)Nc1cc(Cl)c(C(F)(F)F)nc1C [Example 102, N-(5-chloro-2-methyl-6-(trifluoromethyl)pyridin-3-yl)-2-(2-(3,6-dihydro-2H-pyran-4-yl)-5-ethyl-6-(4-(3-hydroxypicolinoyl)piperazin-1-yl)-7-oxo-[1,2,4]triazolo[1,5-a]pyrimidin-4(7H)-yl)acetamide]
SW48 cells; [1]
  GI50: 0.17 µM
WRN helicase
  IC50: 0.09 µM
DLD1-WRN-KO cells; Homo sapiens
  GI50: > 10 µM

## CCc1c(N2CCN(C(=O)c3ncnc(C)c3O)CC2)c(=O)n2nc(C3=CC[C@H](F)CO3)nc2n1CC(=O)Nc1ccc(C(F)(F)F)cc1Cl [Example 127, (S)—N-(2-chloro-4-(trifluoromethyl)phenyl)-2-(5-ethyl-2-(3-fluoro-3,4-dihydro-2H-pyran-6-yl)-6-(4-(5-hydroxy-6-methylpyrimidine-4-carbonyl)piperazin-1-yl)-7-oxo-[1,2,4]triazolo[1,5-a]pyrimidin-4(7H)-yl)acetamide]
SW48 cells; [1]
  GI50: 0.09 µM
WRN helicase
  IC50: 0.08 µM
DLD1-WRN-KO cells; Homo sapiens
  GI50: > 10 µM

## CCc1c(N2CCN(S(=O)(=O)c3ncccc3O)CC2)c(=O)n2nc(C3=CCOCC3)nc2n1CC(=O)Nc1ccc(C(F)(F)F)cc1Cl [Example 137, N-(2-chloro-4-(trifluoromethyl)phenyl)-2-(2-(3,6-dihydro-2H-pyran-4-yl)-5-ethyl-6-(4-((3-hydroxypyridin-2-yl)sulfonyl)piperazin-1-yl)-7-oxo-[1,2,4]triazolo[1,5-a]pyrimidin-4(7H)-yl)acetamide]
SW48 cells; [1]
  GI50: 0.24 µM
WRN helicase
  IC50: 0.05 µM
DLD1-WRN-KO cells; Homo sapiens
  GI50: 6.1 µM

## CCc1c(N2CCN(C(=O)c3nccc(F)c3O)CC2)c(=O)n2nc(C3=CCOCC3)nc2n1CC(=O)Nc1ccc(C(F)(F)F)cc1Cl [Example 40, N-(2-chloro-4-(trifluoromethyl)phenyl)-2-(2-(3,6-dihydro-2H-pyran-4-yl)-5-ethyl-6-(4-(4-fluoro-3-hydroxypicolinoyl)piperazin-1-yl)-7-oxo-[1,2,4]triazolo[1,5-a]pyrimidin-4(7H)-yl)acetamide]
SW48 cells; [1]
  GI50: 0.03 µM
WRN helicase
  IC50: 0.02 µM
DLD1-WRN-KO cells; Homo sapiens
  GI50: > 10 µM

## CCc1c(N2CCN(C(=O)c3ncccc3O)CC2)c(=O)n2nc(C3=CC(=O)OCC3)nc2n1CC(=O)Nc1ccc(C(F)(F)F)cc1C [Example 60, 2-(5-ethyl-6-(4-(3-hydroxypicolinoyl)piperazin-1-yl)-7-oxo-2-(6-oxo-3,6-dihydro-2H-pyran-4-yl)-[1,2,4]triazolo[1,5-a]pyrimidin-4(7H)-yl)-N-(2-methyl-4-(trifluoromethyl)phenyl)acetamide]
SW48 cells; [1]
  GI50: 0.88 µM
WRN helicase
  IC50: 0.24 µM
DLD1-WRN-KO cells; Homo sapiens
  GI50: > 10 µM

## CCc1c(N2CCN(C(=O)c3ncccc3O)CC2)c(=O)n2nc(C3=CC[C@H](OC)CC3)nc2n1CC(=O)Nc1ccc(C(F)(F)F)cc1 (single isomer, unassigned) [Example 81a, ((R)-2-(5-ethyl-6-(4-(3-hydroxypicolinoyl)piperazin-1-yl)-2-(4-methoxycyclohex-1-en-1-yl)-7-oxo-[1,2,4]triazolo[1,5-a]pyrimidin-4(7H)-yl)-N-(4-(trifluoromethyl)phenyl)acetamide or ((S)-2-(5-ethyl-6-(4-(3-hydroxypicolinoyl)piperazin-1-yl)-2-(4-methoxycyclohex-1-en-1-yl)-7-oxo-[1,2,4]triazolo[1,5-a]pyrimidin-4(7H)-yl)-N-(4-(trifluoromethyl)phenyl)acetamide]
SW48 cells; read-out: Proliferation Assay SW48 (GI50), SW48 cell line, geometric means of at least 2 determinations
  GI50: 0.07 µM
WRN helicase
  IC50: 0.04 µM
DLD1-WRN-KO cells; DLD1-WRN-KO cell line, geometric means of at least 2 determinations
  GI50: > 10 µM

## Cc1c(N2CCN(C(=O)c3ncccc3O)[C@H](C)C2)c(=O)n2nc(C3=CCOCC3)nc2n1CC(=O)Nc1ccc(C(F)(F)F)cc1 [Example 89, (R)-2-(2-(3,6-dihydro-2H-pyran-4-yl)-6-(4-(3-hydroxypicolinoyl)-3-methylpiperazin-1-yl)-5-methyl-7-oxo-[1,2,4]triazolo[1,5-a]pyrimidin-4(7H)-yl)-N-(4-(trifluoromethyl)phenyl)acetamide]
SW48 cells; [1]
  GI50: 0.17 µM
WRN helicase
  IC50: 0.04 µM
DLD1-WRN-KO cells; Homo sapiens
  GI50: > 10 µM

## CCc1c(N2CCN(C(=O)c3ncccc3O)CC2)c(=O)n2nc(N3CCCC(F)C3)nc2n1CC(=O)Nc1ccc(C(F)(F)F)cc1C (racemic) [Example 14, rac-2-(5-ethyl-2-(3-fluoropiperidin-1-yl)-6-(4-(3-hydroxypicolinoyl)piperazin-1-yl)-7-oxo-[1,2,4]triazolo[1,5-a]pyrimidin-4(7H)-yl)-N-(2-methyl-4-(trifluoromethyl)phenyl)acetamide]
SW48 cells; [1]
  GI50: 0.48 µM
WRN helicase
  IC50: 0.14 µM
DLD1-WRN-KO cells; Homo sapiens
  GI50: > 10 µM

## CCc1c(N2CCN(C(=O)c3ncccc3O)CC2)c(=O)n2nc(N3CC4CC(C3)O4)nc2n1CC(=O)Nc1ccc(C(F)(F)F)cc1C [Example 21, 2-(2-(6-oxa-3-azabicyclo[3.1.1]heptan-3-yl)-5-ethyl-6-(4-(3-hydroxypicolinoyl)piperazin-1-yl)-7-oxo-[1,2,4]triazolo[1,5-a]pyrimidin-4(7H)-yl)-N-(2-methyl-4-(trifluoromethyl)phenyl)acetamide]
SW48 cells; [1]
  GI50: 1.07 µM
WRN helicase
  IC50: 0.18 µM
DLD1-WRN-KO cells; Homo sapiens
  GI50: > 10 µM

## CCc1c(N2CCN(C(=O)c3ncnc(C)c3O)CC2)c(=O)n2nc(C3=CCOCC3)nc2n1CC(=O)Nc1cc(F)c(C(F)F)cc1C [Example 53, N-(4-(difluoromethyl)-5-fluoro-2-methylphenyl)-2-(2-(3,6-dihydro-2H-pyran-4-yl)-5-ethyl-6-(4-(5-hydroxy-6-methylpyrimidine-4-carbonyl)piperazin-1-yl)-7-oxo-[1,2,4]triazolo[1,5-a]pyrimidin-4(7H)-yl)acetamide]
SW48 cells; [1]
  GI50: 0.14 µM
WRN helicase
  IC50: 0.12 µM
DLD1-WRN-KO cells; Homo sapiens
  GI50: > 10 µM

## CCc1cc(C)c(NC(=O)Cn2c(CC)c(N3CCN(C(=O)c4ncccc4O)CC3)c(=O)n3nc(C4=CCOCC4)nc23)cc1Cl [Example 104, N-(5-chloro-4-ethyl-2-methylphenyl)-2-(2-(3,6-dihydro-2H-pyran-4-yl)-5-ethyl-6-(4-(3-hydroxypicolinoyl)piperazin-1-yl)-7-oxo-[1,2,4]triazolo[1,5-a]pyrimidin-4(7H)-yl)acetamide]
SW48 cells; [1]
  GI50: 0.05 µM
WRN helicase
  IC50: 0.07 µM
DLD1-WRN-KO cells; Homo sapiens
  GI50: > 10 µM

## CCc1c(N2CCN(C(=O)c3ncnc(C)c3O)CC2)c(=O)n2nc(C3=CCCCO3)nc2n1CC(=O)Nc1ccc(C(F)(F)F)nc1Cl [Example 28, N-(2-chloro-6-(trifluoromethyl)pyridin-3-yl)-2-(2-(3,4-dihydro-2H-pyran-6-yl)-5-ethyl-6-(4-(5-hydroxy-6-methylpyrimidine-4-carbonyl)piperazin-1-yl)-7-oxo-[1,2,4]triazolo[1,5-a]pyrimidin-4(7H)-yl)acetamide]
SW48 cells; [1]
  GI50: 0.1 µM
WRN helicase
  IC50: 0.13 µM
DLD1-WRN-KO cells; Homo sapiens
  GI50: > 10 µM
